Source: US5399487A, “6-peptidylamino-1-naphthalenesulfonamides useful as fluorogenic proteolytic enzyme substrates” (Haematologic Technologies, Inc., priority 1993, dated 1995)

Tests used:
Format in all cases: biochemical
factor Xa = factor Xa (Homo sapiens, UniProt P00742); assay: Fluorogenic enzyme assay (Example 5); set-up: key to Kinetic constants, Xa (symbol b): slow substrate hydrolysis, no kinetic constants calculated; conditions: for TIME TO 10% HYDROLYSIS (HOURS), Xa / hydrolysis, Xa (symbol d): substrate 1 μM; for hydrolysis, Xa (symbol d): at 100 hours
factor Xa, sequence (P00742 235-488 limits assumed): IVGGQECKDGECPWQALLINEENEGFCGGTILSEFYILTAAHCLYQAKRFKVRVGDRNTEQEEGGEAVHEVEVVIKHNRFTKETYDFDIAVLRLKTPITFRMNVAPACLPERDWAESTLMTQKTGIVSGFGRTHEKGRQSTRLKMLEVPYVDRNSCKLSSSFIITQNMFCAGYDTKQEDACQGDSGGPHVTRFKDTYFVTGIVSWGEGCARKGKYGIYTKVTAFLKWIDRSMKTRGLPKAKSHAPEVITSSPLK
factor Xa, sequence (P00742 41-179 limits assumed): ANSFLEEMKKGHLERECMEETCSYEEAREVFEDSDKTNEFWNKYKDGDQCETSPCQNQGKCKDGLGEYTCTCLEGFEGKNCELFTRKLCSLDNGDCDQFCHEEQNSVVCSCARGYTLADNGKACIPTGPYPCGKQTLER
Method: (§1) Enzyme assays (except factor VIIa assays, see below) were conducted in 20 mM Tris, 150 mM NaCl, pH 7.4 (TBS) at room temperature (22° C.). The final volume for all reaction mixtures was 2.0 ml. Fluorogenic substrates were dissolved in DMSO to a stock concentration of 10 mM. The 10 mM stock solution was diluted in TBS to the final working concentration prior to all assays. Enzyme was added to mixtures containing buffer components and substrate and the initial rate of substrate hydrolysis was measured as the change in fluorescent intensity over time, corresponding to the generation of the particular 6-amino-1-naphthalenesulfonamide fluorophore from the provided substrate. Quantitation of substrate hydrolysis was accomplished by establishing a standard curve from the appropriate fluorescent moiety. Fluorescence was monitored (continuously or discontinuously) using a Perkin Elmer fluorescence spectrophotometer, model MPF-44A, equipped with a standard chart recorder. The fluorophore was detected using monochrometers set at an excitation wavelength of 352 nm and an emission wavelength of 470 nm. Light scattering artifacts were minimized using a 399 nm cut off filter in the emission light beam.
(§2) The kinetic constants of substrate hydrolysis were determined using the non-linear least squares regression analysis program ENZFITTER (Cambridge, UK). This program was used to iteratively fit initial rates of substrate hydrolysis to the Michaelis-Menten equation and the kinetic constants of substrate hydrolysis (Km) and (kcat) were calculated.

[1] = target: activated protein C (APC) (Homo sapiens, UniProt P04070); assay: Fluorogenic enzyme assay (Example 5); set-up: key to Kinetic constants, APC (symbol b): slow substrate hydrolysis, no kinetic constants calculated; conditions: for TIME TO 10% HYDROLYSIS (HOURS), APC: substrate 1 μM
activated protein C (APC), sequence (P04070 212-461 limits assumed): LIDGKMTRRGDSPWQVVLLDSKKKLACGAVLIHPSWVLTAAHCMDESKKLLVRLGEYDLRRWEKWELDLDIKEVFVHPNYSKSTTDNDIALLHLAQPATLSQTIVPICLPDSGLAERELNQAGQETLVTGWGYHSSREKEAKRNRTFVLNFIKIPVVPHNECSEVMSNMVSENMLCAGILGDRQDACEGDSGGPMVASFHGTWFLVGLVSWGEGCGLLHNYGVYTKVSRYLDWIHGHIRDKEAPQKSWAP
activated protein C (APC), sequence (P04070 43-197 limits assumed): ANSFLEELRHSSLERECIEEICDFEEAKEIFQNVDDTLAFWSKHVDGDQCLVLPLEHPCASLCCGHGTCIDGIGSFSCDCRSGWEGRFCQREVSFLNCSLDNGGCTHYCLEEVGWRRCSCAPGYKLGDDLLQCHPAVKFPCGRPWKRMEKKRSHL
Method: as §1, §2

factor IXa = factor IXa (Homo sapiens, UniProt P00740); assay: Fluorogenic enzyme assay (Example 5); set-up: key to Kinetic constants, IXa (symbol b): slow substrate hydrolysis, no kinetic constants calculated; conditions: for hydrolysis, IXa (symbol d): at 100 hours
factor IXa, sequence (P00740 227-461 limits assumed): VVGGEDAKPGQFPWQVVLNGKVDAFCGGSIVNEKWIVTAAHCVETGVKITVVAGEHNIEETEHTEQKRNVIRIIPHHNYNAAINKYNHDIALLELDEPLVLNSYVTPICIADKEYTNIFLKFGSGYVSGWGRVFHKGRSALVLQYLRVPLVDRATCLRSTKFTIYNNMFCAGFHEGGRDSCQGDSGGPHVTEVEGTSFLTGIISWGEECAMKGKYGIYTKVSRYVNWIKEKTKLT
factor IXa, sequence (P00740 47-191 limits assumed): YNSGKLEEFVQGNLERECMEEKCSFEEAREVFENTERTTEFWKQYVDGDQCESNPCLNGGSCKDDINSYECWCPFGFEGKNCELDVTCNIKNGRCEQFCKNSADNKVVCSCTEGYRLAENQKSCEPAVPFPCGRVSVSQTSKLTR
Method: as §1, §2

plasmin (Plm) = plasmin (Plm) (Homo sapiens, UniProt P00747); assay: Fluorogenic enzyme assay (Example 5); conditions: substrate 1 μM
plasmin (Plm), sequence (P00747 581-810 limits assumed, species assumed): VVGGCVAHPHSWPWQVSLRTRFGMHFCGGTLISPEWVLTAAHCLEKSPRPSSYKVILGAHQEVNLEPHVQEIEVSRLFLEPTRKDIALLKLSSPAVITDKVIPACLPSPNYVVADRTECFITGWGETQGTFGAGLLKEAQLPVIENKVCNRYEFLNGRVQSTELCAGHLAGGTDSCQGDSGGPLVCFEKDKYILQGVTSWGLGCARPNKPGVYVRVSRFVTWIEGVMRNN
plasmin (Plm), sequence (P00747 97-580 limits assumed, species assumed): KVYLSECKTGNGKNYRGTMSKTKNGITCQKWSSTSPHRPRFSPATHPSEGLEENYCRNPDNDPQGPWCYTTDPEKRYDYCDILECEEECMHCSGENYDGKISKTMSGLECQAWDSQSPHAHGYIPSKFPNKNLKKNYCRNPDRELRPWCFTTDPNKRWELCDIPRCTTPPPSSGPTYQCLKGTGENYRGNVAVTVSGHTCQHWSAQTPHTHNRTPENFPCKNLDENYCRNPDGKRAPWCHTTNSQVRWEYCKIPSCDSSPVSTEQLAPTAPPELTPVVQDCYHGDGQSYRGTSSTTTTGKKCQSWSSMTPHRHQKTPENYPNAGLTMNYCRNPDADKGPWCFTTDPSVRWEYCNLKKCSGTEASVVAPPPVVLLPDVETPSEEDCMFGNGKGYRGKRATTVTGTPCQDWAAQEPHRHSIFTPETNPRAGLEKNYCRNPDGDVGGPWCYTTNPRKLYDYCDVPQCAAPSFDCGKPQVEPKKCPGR
Method: as §1, §2

urokinase (u-PA) = urokinase (u-PA) (Homo sapiens, UniProt P00749); assay: Fluorogenic enzyme assay (Example 5); conditions: 100 nM enzyme, substrate 1 μM; for hydrolysis, u-PA (symbol d): at 100 hours
Method: as §1, §2

[2] = target: tissue plasminogen activator (t-PA) (Homo sapiens, UniProt P00750); assay: Fluorogenic enzyme assay (Example 5); conditions: 100 nM enzyme, substrate 1 μM; for hydrolysis, t-PA (symbol d): at 100 hours
tissue plasminogen activator (t-PA), sequence (P00750 36-562, species assumed): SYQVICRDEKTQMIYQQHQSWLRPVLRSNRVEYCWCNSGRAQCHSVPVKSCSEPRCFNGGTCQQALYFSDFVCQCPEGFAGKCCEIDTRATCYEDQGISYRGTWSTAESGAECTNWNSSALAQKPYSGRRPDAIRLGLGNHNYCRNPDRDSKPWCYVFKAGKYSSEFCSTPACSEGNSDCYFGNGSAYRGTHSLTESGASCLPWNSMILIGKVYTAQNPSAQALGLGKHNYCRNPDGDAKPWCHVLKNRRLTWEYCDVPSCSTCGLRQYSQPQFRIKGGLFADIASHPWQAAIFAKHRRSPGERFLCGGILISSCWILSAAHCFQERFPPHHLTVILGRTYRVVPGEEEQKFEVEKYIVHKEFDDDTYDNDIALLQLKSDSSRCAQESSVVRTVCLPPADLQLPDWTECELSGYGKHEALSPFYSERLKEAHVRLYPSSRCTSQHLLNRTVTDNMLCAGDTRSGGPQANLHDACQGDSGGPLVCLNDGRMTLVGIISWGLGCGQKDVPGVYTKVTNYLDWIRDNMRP
Method: as §1, §2

factor VIIa = target: T1, factor VIIa (Homo sapiens, UniProt P08709); assay: Fluorogenic enzyme assay, relative hydrolysis rates (Table 8); conditions: at 100 hours; 10 nM enzyme, substrate 1 μM
T1 construct: directly measure the enzymatic activity of factor VIIa in the presence and absence of tissue factor and phospholipid
T1 sequence (P08709 213-466 limits assumed): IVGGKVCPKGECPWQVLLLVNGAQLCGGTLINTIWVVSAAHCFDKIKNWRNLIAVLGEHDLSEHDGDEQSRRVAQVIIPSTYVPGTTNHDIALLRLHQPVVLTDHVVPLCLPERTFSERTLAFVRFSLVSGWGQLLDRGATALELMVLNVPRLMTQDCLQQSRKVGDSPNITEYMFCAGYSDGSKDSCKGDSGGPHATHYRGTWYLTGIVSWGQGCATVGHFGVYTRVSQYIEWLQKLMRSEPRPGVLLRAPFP
T1 sequence (P08709 61-212 limits assumed): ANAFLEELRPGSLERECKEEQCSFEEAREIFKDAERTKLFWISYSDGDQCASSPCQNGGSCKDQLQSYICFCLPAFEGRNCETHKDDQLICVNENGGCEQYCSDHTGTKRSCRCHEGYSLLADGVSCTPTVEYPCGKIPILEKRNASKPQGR
Method: as §1
Factor VII assays were conducted in 20 mM HEPES, 150 mM NaCl, 5 mM CaCl2, pH 7.4 (HBS) at 37° C. The final volume for all reactions was 1.6 ml. 6-(Mes-D-Leu-Gly-Arg)amino-1-(N,N-diethyl)naphthalenesulfonamide was dissolved in DMSO to a stock concentration of 10 mM. This 10 mM stock solution of was diluted in HBS to final working concentration prior to all assays. For reactions involving tissue factor (TF) and phospholipid vesicles, recombinant human tissue factor was solubilized in either 0.04% n-dodecyl octaethylene glycol (C12 E8) or 0.8% octyl glucoside. The TF/n-dodecyl octaethylene glycol was then relipidated into PCPS or PC vesicles by a 30 minute incubation step as described by Lawson & Mann, J. Biol. Chem. 266: 11317-11327 (1991). TF/octyl glucoside was relipidated into PC or PCPS vesicles by a thirty minute incubation step followed by exhaustive dialysis. The final concentration of tissue factor used in the studies described here ranged from 2 to 50 nM depending on the nature of the experiment.
Fifteen minutes prior to the start of all reactions factor VIIa was added to the reaction system. This incubation period was followed by the addition of substrate (1 μM to 400 μM) to the mixture to start the reaction. In experiments designed to determine kinetic constants of substrate hydrolysis, 50 nM rVIIa was used when no tissue factor was present in the reaction system, while 0.5 nM rVIIa was used when tissue factor was present in the reaction system. The rate of substrate hydrolysis was measured by change in fluorescence over time, which corresponded with the generation of the 6-amino-1-(N,N-diethyl)naphthalenesulfonamide from the provided substrate. The kinetic constants of 6-(Mes-D-Leu-Gly-Arg)amino-1-(N,N-diethyl)naphthalenesulfonamide hydrolysis as a function of factor VIIa/tissue factor complex assembly are shown in Table 10.

thrombin (IIa) = target: T2, thrombin (IIa) (Homo sapiens, UniProt P00734); assay: Fluorogenic enzyme assay (Example 5); set-up: key to Kinetic constants, IIa (symbol b): slow substrate hydrolysis, no kinetic constants calculated
T2 construct: 0.5 nM human thrombin (IIa)
Method: as §1, §2

Compound | TIME TO 10% HYDROLYSIS (HOURS), Xa (factor Xa; 100 nM enzyme (footnote b)) [h] | TIME TO 10% HYDROLYSIS (HOURS), APC ([1]; 100 nM enzyme (footnote b)) [h] | hydrolysis, IXa (symbol d) (factor IXa; 100 nM enzyme, substrate 1 μM) | TIME TO 10% HYDROLYSIS (HOURS), Plm (plasmin (Plm); 100 nM enzyme (footnote b)) [h] | hydrolysis, u-PA (symbol d) (urokinase (u-PA)) | hydrolysis, t-PA (symbol d) [2] | hydrolysis, VIIa (symbol d) (factor VIIa) | TIME TO 10% HYDROLYSIS (HOURS), IIa (thrombin (IIa); 10 nM enzyme, substrate 1 μM) [h] | TIME TO 10% HYDROLYSIS (HOURS), Xa (factor Xa; 10 nM enzyme) [h] | Km (factor Xa; Table 9) [µM] | kcat /Km, Xa (factor Xa; Table 9) [M⁻¹ s⁻¹] | kcat, Xa (factor Xa; Table 9) [s⁻¹] | TIME TO 10% HYDROLYSIS (HOURS), APC ([1]; 10 nM enzyme) [h] | Kinetic constants, IXa (symbol b) (factor IXa; Table 9) | TIME TO 10% HYDROLYSIS (HOURS), Plm (plasmin (Plm); 10 nM enzyme) [h] | TIME TO 10% HYDROLYSIS (HOURS), u-PA (urokinase (u-PA)) [h] | TIME TO 10% HYDROLYSIS (HOURS), t-PA [2] [h] | Km (thrombin (IIa); Table 9) [µM] | kcat, IIa (thrombin (IIa); Table 9) [s⁻¹] | Km ([1]; Table 9) [µM] | other results
CN(C)S(=O)(=O)c1cccc2cc(NC(=O)[C@H](CCCNC(=N)N)NC(=O)[C@H](CCCCNC(=O)OCc3ccccc3)NC(=O)OC(C)(C)C)ccc12 [(N^α -Boc,N^.cndot. -Z)KR-ANSN(CH23)2] | 24 | 11 | d (hydrolysis at 100 hours was less than 10%.) | 1.5 | d (hydrolysis at 100 hours was less than 10%.) | d (hydrolysis at 100 hours was less than 10%.) | d (hydrolysis at 100 hours was less than 10%.) | 18 |  |  |  |  |  |  |  |  |  |  |  |  | 
CCCNS(=O)(=O)c1cccc2cc(NC(=O)[C@H](CCCNC(=N)N)NC(=O)[C@H](Cc3ccccc3)NC(=O)[C@@H]3CCCN3C(=O)OC(C)(C)C)ccc12 [BocPFR-ANSNHC3 H7] |  |  | d (hydrolysis at 100 hours was less than 10%.) |  |  |  | d (hydrolysis at 100 hours was less than 10%.) | 4 | 9 | 230 | 260 | 0.06 | 3 | b | 22 | 5 | 4 | 44.4 | 0.04 |  | Kinetic constants, APC (symbol b) ([1]; Table 9): b; kcat /Km, IIa (thrombin (IIa); Table 9): 900 M⁻¹ s⁻¹
Br.Br.CC(C)C[C@@H](N)C(=O)N1CCC[C@H]1C(=O)N[C@@H](CCCNC(=N)N)C(=O)Nc1ccc2c(S(=O)(=O)N3CCCCC3)cccc2c1 [D-LPR-ANSN(CH2)5] |  |  |  |  |  |  | d (hydrolysis at 100 hours was less than 10%.) |  | 0.4 | 400 | 7250 | 2.9 | 0.02 |  | 0.33 | 1 | 1.3 | 7.7 | 11.6 | 160 | kcat /Km, APC ([1]; Table 9): 6880 M⁻¹ s⁻¹; kcat, APC ([1]; Table 9): 1.1 s⁻¹; TIME TO 10% HYDROLYSIS (HOURS), IXa (factor IXa; 100 nM enzyme, substrate 1 μM): 4 h; Km (factor IXa; Table 9): 343 µM; kcat, IXa (factor IXa; Table 9): 0.4 s⁻¹; kcat/Km, IXa (factor IXa; Table 9): 1170 M⁻¹ s⁻¹; TIME TO 10% HYDROLYSIS (HOURS), IIa (thrombin (IIa); 1 nM enzyme (footnote c), substrate 1 μM): 0.01 h
Br.Br.Br.N=C(N)NCCC[C@H](NC(=O)CNC(=O)CN)C(=O)N[C@@H](CCCNC(=N)N)C(=O)Nc1ccc2c(S(=O)(=O)NC3CCCCC3)cccc2c1 [GGRR-ANSNH(cyclo-C6 H11)] | 46 |  | d (hydrolysis at 100 hours was less than 10%.) | 2.5 |  | d (hydrolysis at 100 hours was less than 10%.) | d (hydrolysis at 100 hours was less than 10%.) | 93 |  |  |  |  | 0.5 | b |  | 24 |  |  |  | 267 | Kinetic constants, Xa (symbol b) (factor Xa; Table 9): b; kcat /Km, APC ([1]; Table 9): 11600 M⁻¹ s⁻¹; kcat, APC ([1]; Table 9): 3.1 s⁻¹; Kinetic constants, IIa (symbol b) (thrombin (IIa); Table 9): b
Br.Br.Br.CN(C)S(=O)(=O)c1cccc2cc(NC(=O)[C@H](CCCNC(=N)N)NC(=O)[C@@H](N)CCCCN)ccc12 [KR-ANSN(CH3)2] |  | 8 | d (hydrolysis at 100 hours was less than 10%.) | 8 | d (hydrolysis at 100 hours was less than 10%.) | d (hydrolysis at 100 hours was less than 10%.) | d (hydrolysis at 100 hours was less than 10%.) |  |  |  |  |  |  |  |  |  |  |  |  |  | hydrolysis, Xa (symbol d) (factor Xa; 10 nM enzyme): d (hydrolysis at 100 hours was less than 10%.); hydrolysis, IIa (symbol d) (thrombin (IIa); at 100 hours, 10 nM enzyme, substrate 1 μM): d (hydrolysis at 100 hours was less than 10%.)
CN(C)S(=O)(=O)c1cccc2cc(NC(=O)[C@H](CCCNC(=N)N)NC(=O)[C@@H](N)CCCCNC(=O)OCc3ccccc3)ccc12.Cl.Cl [N^ω -AZ)KJR-ANSN(CH3)2] |  | 5.5 | d (hydrolysis at 100 hours was less than 10%.) | 1.5 | d (hydrolysis at 100 hours was less than 10%.) | d (hydrolysis at 100 hours was less than 10%.) | d (hydrolysis at 100 hours was less than 10%.) | 26 |  |  |  |  |  |  |  |  |  |  |  |  | hydrolysis, Xa (symbol d) (factor Xa; 10 nM enzyme): d (hydrolysis at 100 hours was less than 10%.)
